Series [1] has as its system RG2. Kind of series: Synergistic cytotoxicity against rat RG2 cells assessed as combination index at 134.9 uM after 48 hrs in presence of 412.1 uM TMZ by MTT assay. It counts as functional.
Series [2] relates to RG2. Kind of series: Induction of cell cycle arrest in rat RG2 cells assessed as accumulation at G0/G1 phase at 112.4 uM after 6 hrs in presence of TMZ by propidium iodide staining based flow cytometric analysis (reference value: 57.81 +/- 1.9%). The format is functional. (A flow cytometer gives signals particle by particle.)
Series [3] has as its system RG2. Kind of series: Synergistic cytotoxicity against rat RG2 cells assessed as combination index at 134.9 uM after 48 hrs in presence of 103 uM TMZ by MTT assay. The format is functional. (Tetrazolium dyes change colour on reduction, which living cells bring about.)
Series [4] relates to DBTRG-05MG. Description: Potentiation of TMZ-induced antitumor activity against human DBTRG-05MG cells xenografted in BALB/c nude mouse assessed as increase in apoptotic cells at 75 mg/kg, sc co-treated with TMZ for 18 days by TUNEL assay. It counts as functional, organism-based. Particulars: time 18.0 day. (In general: Xenograft models place foreign cells or tissue in a host animal.)

The test system of series [5] is RG2. Description: Induction of cell cycle arrest in rat RG2 cells assessed as p21 expression at 112.4 uM after 48 hrs in presence of TMZ by Western blot analysis (reference value: 1). The format is functional.
The nature of series [6]: Effect of CD133 expression in rat RG2 cells at 112.4 uM after 48 hrs by Western blot analysis. It counts as functional.
A short description of series [7]: Synergistic cytotoxicity against rat CTX TNA2 cells assessed as combination index at 112.4 uM after 48 hrs in presence of 412.1 uM TMZ by MTT assay. The format is cell-based. The conditions noted are these: ctx tna2, 48 h.
The target in series [8] is Serine/threonine-protein kinase AKT (Homo sapiens) (UniProt P31751+Q9Y243+P31749). Kind of series: Inhibition of AKT phosphorylation at S473 residues in human DBTRG-05MG cells at 112.4uM after 48 hrs in presence of TMZ by Western blot analysis. It counts as cell-based.
Serine/threonine-protein kinase AKT (Homo sapiens), sequence (P31749 whole entry, looked up): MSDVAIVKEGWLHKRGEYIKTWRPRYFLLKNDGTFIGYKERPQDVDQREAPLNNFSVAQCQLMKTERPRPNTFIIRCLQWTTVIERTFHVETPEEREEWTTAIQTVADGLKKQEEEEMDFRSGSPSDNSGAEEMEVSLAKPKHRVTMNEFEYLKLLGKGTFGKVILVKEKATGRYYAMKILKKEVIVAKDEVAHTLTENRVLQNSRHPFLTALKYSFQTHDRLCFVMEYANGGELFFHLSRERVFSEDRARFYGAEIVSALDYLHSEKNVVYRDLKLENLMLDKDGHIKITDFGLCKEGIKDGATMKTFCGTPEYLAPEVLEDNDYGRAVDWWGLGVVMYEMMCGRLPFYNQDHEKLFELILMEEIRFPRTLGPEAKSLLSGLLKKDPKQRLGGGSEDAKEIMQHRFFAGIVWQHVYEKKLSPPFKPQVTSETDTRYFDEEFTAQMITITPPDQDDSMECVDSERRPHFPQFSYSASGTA
Serine/threonine-protein kinase AKT (Homo sapiens), sequence (P31751 whole entry, looked up): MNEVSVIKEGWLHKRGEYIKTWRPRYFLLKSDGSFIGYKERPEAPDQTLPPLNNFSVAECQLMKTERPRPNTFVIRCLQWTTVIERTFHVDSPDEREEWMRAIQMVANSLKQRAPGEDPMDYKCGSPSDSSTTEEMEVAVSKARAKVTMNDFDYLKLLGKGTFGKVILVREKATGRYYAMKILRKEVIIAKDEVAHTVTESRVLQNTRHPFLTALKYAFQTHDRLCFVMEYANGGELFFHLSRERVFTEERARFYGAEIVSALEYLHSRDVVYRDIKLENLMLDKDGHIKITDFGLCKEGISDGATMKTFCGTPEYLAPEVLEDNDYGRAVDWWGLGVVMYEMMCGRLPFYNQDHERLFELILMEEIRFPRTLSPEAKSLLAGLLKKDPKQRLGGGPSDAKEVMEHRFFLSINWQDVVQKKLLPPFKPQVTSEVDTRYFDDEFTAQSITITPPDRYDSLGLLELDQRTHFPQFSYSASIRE
Serine/threonine-protein kinase AKT (Homo sapiens), sequence (Q9Y243 whole entry, looked up): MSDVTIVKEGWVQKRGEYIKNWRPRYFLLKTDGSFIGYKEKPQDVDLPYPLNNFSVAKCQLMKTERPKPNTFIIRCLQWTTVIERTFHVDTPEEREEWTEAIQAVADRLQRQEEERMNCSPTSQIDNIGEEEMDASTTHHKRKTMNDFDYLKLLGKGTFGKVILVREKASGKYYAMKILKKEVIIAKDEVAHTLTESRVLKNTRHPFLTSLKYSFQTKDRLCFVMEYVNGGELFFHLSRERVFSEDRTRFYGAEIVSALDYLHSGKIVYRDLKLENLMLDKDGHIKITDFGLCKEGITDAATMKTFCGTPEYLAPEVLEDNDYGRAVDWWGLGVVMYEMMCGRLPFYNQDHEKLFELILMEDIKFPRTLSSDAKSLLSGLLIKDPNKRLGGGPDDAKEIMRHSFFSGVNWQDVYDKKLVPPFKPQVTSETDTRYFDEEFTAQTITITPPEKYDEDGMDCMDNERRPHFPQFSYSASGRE
Series [9] concerns RG2. Kind of series: Induction of cell cycle arrest in rat RG2 cells assessed as CyclinA expression at 112.4 uM after 48 hrs in presence of TMZ by Western blot analysis (reference value: 1). The format is functional.
In series [10] the test system is RG2. Kind of series: Inhibition of p38 phosphorylation at Tyr182 residues in rat RG2 cells at 112.4uM after 48 hrs by Western blot analysis (reference value: 1). It counts as cell-based.
Series [11] deals with DBTRG-05MG. Description: Inhibition of ERK phosphorylation at Tyr204 residues in human DBTRG-05MG cells at 112.4uM after 48 hrs in presence of TMZ by Western blot analysis (reference value: 1). The format is cell-based.
Series [12] deals with DBTRG-05MG. Kind of series: Synergistic cytotoxicity against human DBTRG-05MG cells assessed as synergistic effect index at 112.4 uM after 48 hrs in presence of 412.1 uM TMZ by MTT assay. It counts as functional.
Series [13] concerns DBTRG-05MG. Description: Synergistic cytotoxicity against human DBTRG-05MG cells assessed as combination index at 89.9 uM after 48 hrs in presence of 515.1 uM TMZ by MTT assay. It counts as functional.
The test system of series [14] is RG2. Kind of series: Synergistic cytotoxicity against rat RG2 cells assessed as combination index at 112.4 uM after 48 hrs in presence of 103 uM TMZ by MTT assay. It counts as functional.
For series [15], the system named is DBTRG-05MG. Kind of series: Synergistic cytotoxicity against human DBTRG-05MG cells assessed as synergistic effect index at 89.9 uM after 48 hrs in presence of 515.1 uM TMZ by MTT assay. It counts as functional.
Series [16] relates to RG2. Kind of series: Induction of apoptosis in rat RG2 cells assessed as cleaved caspace-9 expression at 112.4 uM after 48 hrs by Western blot analysis (reference value: 1). The format is functional.
The test system of series [17] is DBTRG-05MG. Kind of series: Induction of cell cycle arrest in human DBTRG-05MG cells assessed as accumulation at S phase at 112.4 uM after 48 hrs in presence of TMZ by propidium iodide staining based flow cytometric analysis (reference value: 22.76 +/- 1.56%). It counts as functional.
Series [18] in a line: Effect of MGMT expression in human DBTRG-05MG cells at 112.4 uM after 48 hrs by Western blot analysis (reference value: 1). It counts as functional.
Series [19] concerns DBTRG-05MG. Kind of series: Induction of apoptosis in human DBTRG-05MG cells assessed as Bax expression at 112.4 uM after 48 hrs in presence of TMZ by Western blot analysis (reference value: 1). It counts as functional.
Series [20] deals with RG2. Description: Synergistic cytotoxicity against rat RG2 cells assessed as combination index at 112.4 uM after 48 hrs in presence of 412.1 uM TMZ by MTT assay. It counts as functional.
For series [21], the system named is DBTRG-05MG. Description: Induction of cell cycle arrest in human DBTRG-05MG cells assessed as accumulation at G0/G1 phase at 206 uM after 6 hrs by propidium iodide staining based flow cytometric analysis (reference value: 47.16 +/- 1.55%). It counts as functional.
The test system of series [22] is DBTRG-05MG. Description: Induction of apoptosis in human DBTRG-05MG cells assessed as cleaved PARP expression at 206 uM after 48 hrs by Western blot analysis (reference value: 1). The format is functional.
Series [23] relates to DBTRG-05MG. Kind of series: Induction of cell cycle arrest in human DBTRG-05MG cells assessed as CDK2 expression at 206 uM after 48 hrs by Western blot analysis (reference value: 1). The format is functional.
The subject of series [24] is DBTRG-05MG. Kind of series: Induction of apoptosis in human DBTRG-05MG cells assessed as phosphorylated caspace-3 expression at 206 uM after 48 hrs by Western blot analysis (reference value: 1). It counts as functional.
Series [25] relates to RG2. Description: Induction of cell cycle arrest in rat RG2 cells assessed as accumulation at G0/G1 phase at 206 uM after 24 hrs by propidium iodide staining based flow cytometric analysis (reference value: 57.81 +/- 1.9%). The format is functional.
Series [26] deals with DBTRG-05MG. Kind of series: Induction of DNA damage in human DBTRG-05MG cells assessed as Chk2 phosphorylation at Thr68 residues at 206 uM after 48 hrs by Western blot analysis (reference value: 1). It counts as functional.
Series [27] has as its system DBTRG-05MG. Kind of series: Induction of apoptosis in human DBTRG-05MG cells assessed as phosphorylated PARP expression at 206 uM after 48 hrs by Western blot analysis (reference value: 1). The format is functional.
In series [28] the test system is RG2. Kind of series: Induction of cell cycle arrest in rat RG2 cells assessed as accumulation at S phase at 206 uM after 12 hrs by propidium iodide staining based flow cytometric analysis (reference value: 20.15 +/- 2.44%). It counts as functional.
Series [29] has as its system RG2. Kind of series: Induction of cell cycle arrest in rat RG2 cells assessed as accumulation at G0/G1 phase at 206 uM after 48 hrs by propidium iodide staining based flow cytometric analysis (reference value: 57.81 +/- 1.9%). It counts as functional.
The subject of series [30] is RG2. Description: Induction of cell cycle arrest in rat RG2 cells assessed as CyclinB1 expression at 206 uM after 48 hrs by Western blot analysis (reference value: 1). It counts as functional.
Series [31] relates to DBTRG-05MG. Kind of series: Antitumour activity against human DBTRG-05MG cells xenografted in BALB/c nude mouse assessed as reduction in tumour growth at 5 mg/kg, ip for 5 days and measured every 2 days. It counts as functional, organism-based. Particulars: time 5.0 day.
Series [32] deals with RG2. Description: Induction of apoptosis in rat RG2 cells assessed as increase in DNA fragmentation at 206 uM after 48 hrs by TUNEL assay. It counts as functional, cell-based.
For series [33], the system named is DBTRG-05MG. Description: Induction of apoptosis in human DBTRG-05MG cells assessed as Bcl2 expression at 206 uM after 48 hrs by Western blot analysis (reference value: 1). The format is functional.

2 molecules from ChEMBL document CHEMBL4699511, “Cedrol, a Sesquiterpene Alcohol, Enhances the Anticancer Efficacy of Temozolomide in Attenuating Drug Resistance via Regulation of the DNA Damage Response and MGMT Expression” (J Nat Prod, 2020) can be followed below.

The source made the active and inactive calls. No cut-off for these calls is given here.

With `C[C@@H]1CC[C@H]2C(C)(C)[C@H]3C[C@@]12CC[C@@]3(C)O` [CEDROL], the CI in the series on RG2 [1] stood at 0.93; in the series with RG2 [3] it was 0.83; in [7], 1.1; in the series with DBTRG-05MG [13], 0.81; in the series on RG2 [14], 0.8; in the series with RG2 [20] it was 0.99. For the same molecule, the figures for the Activity with RG2 [2] and in the series with DBTRG-05MG [17] were 61.59% and 20.58%, respectively. In addition, in the series with DBTRG-05MG [4], the outcome was Active. Further, the “fold change (FC)” value with RG2 [5] came to 2.5; in series [6], 1; in series [8], 0.5; with RG2 [9], 0.7; in the series on RG2 [10], 1.3; in the series with DBTRG-05MG [11] it was 0.5. The “fold change (FC)” value turned out to be 1.3 with RG2 [16], 0.8 in series [18] and 1.7 with DBTRG-05MG [19]. The Activity_index came out at 0.86 with DBTRG-05MG [12] and 0.77 in the series with DBTRG-05MG [15].

Consider `Cn1nnc2c(C(N)=O)ncn2c1=O` [TEMOZOLOMIDE], for which the Activity in the series with DBTRG-05MG [21] turned out to be 40.56%; in the series on RG2 [25], 52.7%; in the series on RG2 [28], 22.12%; with RG2 [29], 26.97%. Further, the “fold change (FC)” value in the series on DBTRG-05MG [22] is recorded as 1.4; in the series on DBTRG-05MG [23], 0.8; in the series with DBTRG-05MG [24], 1.3; with DBTRG-05MG [26], 2; in the series on DBTRG-05MG [27], 0.4; in the series on RG2 [30], 1.8. For the same molecule, in the series on DBTRG-05MG [33], the “fold change (FC)” value is given as 1.3. Moreover, the outcome in the series with DBTRG-05MG [31] and with RG2 [32] was Active.
